# Source: patent publication US8318657B2, “Methods and compositions for preventing and/or treating pancreatitis” (Flinders Technologies Pty Ltd., priority 2005, dated 2012)
# Entries after “also recorded” stand apart in the source; their conditions may differ.
# Columns and labels:
# [1] = system: basal pancreatic exocrine secretion; experiment: Basal pancreatic exocrine secretion in anaesthetised possums; type: in vivo, Australian Brush-tailed possums (Trichosurus vulpecula); conditions: galanin 0.5 or galantide 1.5 nmol/kg bolus then 2 nmol/kg/h i.v., preliminary study
# Procedure: The possums were anaesthetized as described above. The left femoral vein was cannulated with two cannulae (1.05 mm OD, 0.35 ID) for administration of anaesthetic drugs and normal saline. […] A midline laparotomy was then performed. With minimal handling of tissues, the duodenum with the sphincter of Oddi was placed on a platform and stabilised with pins. The pancreatic duct component of the sphincter of Oddi was identified with the aid of a dissecting microscope and opened with micro-scissors. It was then cannulated (1.5 mm OD, 0.9 mm ID) advanced 4-5 mm and ligated with 5-0 prolene suture. This cannula was left open to collect pancreatic juice. After an initial stabilization period of 15 minutes, the pancreatic juice was collected every 30 minutes for 3.5 hours.
# (§1) The quantity of pancreatic exocrine secretion was estimated gravimetrically (basal secretion and stimulated secretion).
# [2] = system: possum model of acute pancreatitis (AP); experiment: Possum model of acute pancreatitis (pancreatic duct ligation + CCK/secretin) with galanin or galantide; type: in vivo, Australian Brush-tailed possums (Trichosurus vulpecula); conditions: for plasma amylase activity / plasma lipase activity / pancreatic vascular perfusion (PVP) / pancreatic oedema: possum AP; for pancreatic oedema: pancreas harvested 8 hours post-AP induction, H&E, point counting, treatment from 15 minutes prior to AP induction, decrease of AP-induced oedema
# [3] = system: mice without acute pancreatitis; experiment: Control groups: mice given galanin or galanin antagonist alone (saline, no caerulein); conditions: mice without AP
# [4] = system: caerulein-induced acute pancreatitis (AP) in mice; experiment: Caerulein-induced acute pancreatitis in mice (mild model, 7 hourly i.p. injections) with galanin or galanin antagonists; type: in vivo, mouse (female Balb C or Swiss); conditions: for pancreatic acinar cell necrosis score: histology scoring system
# [5] = system: hyperstimulated pancreatic exocrine secretion; experiment: Hyperstimulated (CCK/secretin) pancreatic exocrine secretion in anaesthetised possums; type: in vivo, Australian Brush-tailed possums (Trichosurus vulpecula); conditions: CCK/secretin 5 ug/kg of each/hour i.v., galanin 0.5 or galantide 1.5 nmol/kg bolus then 2 nmol/kg/h, decrease of elevated volume, preliminary study
# Procedure: The experimental setup was similar to as described above. In the control group after an initial stabilization period of 15 minutes, the pancreatic juice was collected at half hourly intervals for one hour. This established the basal secretion rate. Then a mixture of cholecystokinin and secretin (CCK-SEC) was infused i.v at 5 μg (of each peptide)/kg/hr for the entire duration of the experiment.
# The galanin or galantide infusion was continued for one and a half hour and then stopped. The CCK-SEC infusion was further continued for one hour. During the entire course of experiment, pancreatic juice was collected at half hourly intervals.
# as §1
# [6] = GT 1.5 nmol/kg bolus then 2 nmol/kg/h i.v., delayed: initiated 2 hours post-AP induction
# [7] = GT 1.5 nmol/kg bolus then 2 nmol/kg/h i.v., delayed: initiated 2 hours post-AP induction, listed as GT
# [8] = i.v. bolus (GL 0.5, GT 1.5 nmol/kg) then 2 nmol/kg/h continuous infusion, initiated 15 minutes prior to AP induction, effect on AP-induced rise
# [9] = i.v. bolus (GL 0.5, GT 1.5 nmol/kg) then 2 nmol/kg/h continuous infusion, initiated 15 minutes prior to AP induction, effect on AP-induced rise, listed as GT
# [10] = mouse caerulein AP, 20 nmol/kg i.p. with each caerulein injection, reduction of AP-induced level
# [11] = mouse caerulein AP, 40 nmol/kg i.p. with each caerulein injection, reduction of AP-induced level
# [12] = mouse caerulein AP, GT 40 nmol/kg, treatment delayed for 2 hours post-AP induction
smiles,measurement,setting,value
"CSCC[C@H](NC(=O)[C@H](CC(C)C)NC(=O)CNC(=O)[C@H](Cc1ccccc1)NC(=O)[C@H](Cc1ccccc1)NC(=O)[C@H](CCC(N)=O)NC(=O)[C@H](CCC(N)=O)NC(=O)[C@@H]1CCCN1C(=O)CNC(=O)[C@H](CC(C)C)NC(=O)[C@H](CC(C)C)NC(=O)[C@H](Cc1ccc(O)cc1)NC(=O)CNC(=O)[C@H](C)NC(=O)[C@H](CO)NC(=O)[C@H](CC(N)=O)NC(=O)[C@H](CC(C)C)NC(=O)[C@@H](NC(=O)[C@H](Cc1c[nH]c2ccccc12)NC(=O)CN)[C@@H](C)O)C(N)=O [Galantide, Galanin(1-13)-substance P(5-11) amide]",basal rate of pancreatic exocrine secretion (volume),[1],does not influence basal exocrine secretion (volume)
same,plasma amylase activity,[2]; [6],reduces plasma amylase and lipase secretion
same,plasma lipase activity,[2]; [6],reduces plasma amylase and lipase secretion
same,plasma amylase activity,[2]; [7],reduced the AP-induced rise in plasma amylase activity
same,plasma lipase activity,[2]; [7],suppressed the AP-induced rise in plasma lipase activity
same,pancreatic vascular perfusion (PVP),"[2]; i.v. bolus (GL 0.5, GT 1.5 nmol/kg) then 2 nmol/kg/h continuous infusion, initiated 15 minutes prior to AP induction",increases PVP from the outset
same,plasma amylase activity,[2]; [8],completed prevented the pancreatitis-induced increase in plasma amylase
same,plasma lipase activity,[2]; [8],markedly depressed the pancreatitis-induced increase in plasma lipase
same,plasma amylase activity,[2]; [9],completely suppressed the AP-induced rise in plasma amylase activity
same,plasma lipase activity,[2]; [9],markedly suppressed the AP-induced rise in plasma lipase activity
same,pancreatic vascular perfusion (PVP),"[2]; i.v. bolus (GL 0.5, GT 1.5 nmol/kg) then 2 nmol/kg/h continuous infusion, initiated 15 minutes prior to AP induction, listed as GT",sustained fall in PVP
same,pancreatic oedema,[2],reduced
same,pancreatic oedema,[2]; listed as GT,significantly decreased
same,severity of pancreatitis (summary),"[2]; possums, administration prior to the onset and also after onset of acute pancreatitis",reduces the severity of pancreatitis
same,pancreatic myeloperoxidase (MPO) activity,[3]; 20 nmol/kg alone,did induce a low level of pancreatic MPO
same,pancreatic tissue architecture (histological sections),[3]; 20 nmol/kg alone,near normal pancreatic architecture
same,plasma amylase activity,"[3]; 20 nmol/kg alone, vs baseline",did not increase plasma amylase activity above baseline activity
same,plasma lipase activity,"[3]; 20 nmol/kg alone, vs baseline",did not increase plasma lipase activity above baseline activity
same,pancreatic myeloperoxidase (MPO) activity,[3]; 40 nmol/kg alone,did induce a low level of pancreatic MPO
same,pancreatic myeloperoxidase (MPO) activity,"[4]; mouse caerulein AP, 10 nmol/kg i.p. with each caerulein injection, reduction of AP-induced level, listed as GT",also effective; also recorded: significantly reduced
same,pancreatic tissue architecture / AP-induced pancreatic damage (histological sections),"[4]; mouse caerulein AP, 20 nmol/kg",reduced the acute pancreatitis-induced pancreatic damage
same,pancreatic myeloperoxidase (MPO) activity,[4]; [10],significantly reduced
same,plasma amylase activity,[4]; [10],reduced the plasma amylase level
same,plasma lipase activity,[4]; [10],significantly reduced
same,plasma amylase activity,"[4]; mouse caerulein AP, 20 nmol/kg i.p. with each caerulein injection, reduction of AP-induced level, listed as GT",significantly reduced
same,pancreatic acinar cell necrosis score,"[4]; mouse caerulein AP, 20 nmol/kg",reduced the pancreatitis-induced necrosis
same,pancreatic acinar cell necrosis score,"[4]; mouse caerulein AP, 20 nmol/kg, listed as GT",significantly reduced the necrosis score
same,histology score (pancreatic tissue damage),"[4]; mouse caerulein AP, 20 nmol/kg, scoring system",significantly reduced the histology score
same,plasma amylase activity,[4]; [11],reduced the plasma amylase level
same,plasma lipase activity,[4]; [11],significantly reduced
same,plasma amylase activity,"[4]; mouse caerulein AP, 40 nmol/kg i.p. with each caerulein injection, reduction of AP-induced level, listed as GT",significantly reduced
same,pancreatic myeloperoxidase (MPO) activity,"[4]; mouse caerulein AP, 40 nmol/kg i.p. with each caerulein injection, vs AP alone",significantly reduced
same,plasma amylase activity,[4]; [12],significantly reduced
same,plasma lipase activity,[4]; [12],significantly reduced
same,pancreatitis-induced plasma hyperenzymemia,"[4]; mouse caerulein AP, galantide administered 2 hours post pancreatitis onset, preliminary results",reduces the pancreatitis-induced plasma hyperenzymemia
same,severity of pancreatitis (summary),[4]; mouse pancreatitis studies,has the ability to reduce the severity of pancreatitis
same,hyperstimulated pancreatic exocrine secretion (volume of pancreatic juice),[5],does reduce hyper-stimulated exocrine secretion
same,hyperstimulated pancreatic exocrine secretion (volume of pancreatic juice),[5]; listed as galantide,decreased
